Like-named read-outs stand apart in the source and are kept apart here.
Tests used:
[1] = system: reserpine-induced hypothermia; assay: Antagonistic activity against reserpine-induced hypothermia; type: in vivo, ddY male mice; conditions: Mus musculus, po, read-out: ED50 (dose exhibiting 50% antagonistic activity against reserpine hypothermia)
Experimental: A. ANTAGONISTIC ACTIVITY AGAINST RESERPINE-INDUCED HYPOTHERMIA
A test was carried out using ddY male mice of 22-25 g in body weight, one group consisting of 6 mice.
The body temperature of mice was approximately 38° C. before the test. At 4 hours after intraperitoneal administration of reserpine in an amount of 5 mg/kg the body temperature of mice was reduced by approximately 8° C. in average. The test compound was simultaneously orally administered with 5 mg/kg of reserpine, and the degree of antagonistic effect of the test compound on the hypothermal action of reserpine was measured. This test has hitherto been the commonest method for evaluating anti-depressant activity.
Percentage (%) of an antagonistic activity was calculated by varying the doses of each test compound.

[2] = Acute toxicity (LD50) in male mice; conditions: mouse, in vivo, po
[3] = system: passive avoidance response failure by electric shock; assay: Passive avoidance response failure by electric shock as model of amnesia; type: in vivo; conditions: p.o., male Wistar rats, 3 hours or more after oral administration
From the text: B. PASSIVE AVOIDANCE RESPONSE FAILURE BY ELECTRIC SHOCK AS MODEL OF AMNESIA
The test apparatus used, called as "Two Compartment Avoidance Box", consisted of a large lit compartment and a small dark compartment having a grid floor to which an electric current can be applied, these two compartments being painted black innerly and connected to each other
Male Wistar rats of 170-220 g in body weight enter into the small box soon after they are introduced into the large box. […] This response is called as "passive avoidance response".
However, if an electric shock of 60 mA, 200 Hz for 0.8 second is given to the rat by electrodes set on both ears of the rat immediately after the rat comes out of the small box upon the application of the electric current, the "passive avoidance response" is inhibited. Indeed, the period for entering into the small box from the large box, latency, is shortened. This phenomenon is caused by loss of memory of the electric current applied from the grid floor by the electric shock. The shortened time of latency is used as an index of the loss of memory.
A memory improvement effect of a test compound is expressed in the degree of prolongation of latency (% improvement) in a test carried out 3 hours or more after the oral administration of the test compound after application of an electric shock.

[4] = mice, test compound orally, simultaneously with reserpine 5 mg/kg, body temperature at 4 hours, Litchfield-Wilcoxon method

SMILES: Clc1cc2c(-c3ccccc3)nc(N3CCNCC3)nc2s1 [Example 7, 6-chloro-4-phenyl-2-piperazinyl-thieno[2,3-d]pyrimidine]
- ED50 [1, 4]: 2.4 mg/kg

SMILES: Cc1cc2c(-c3ccccc3C)nc(N3CCNCC3)nc2s1 [Example 16]
- LD50 [2]: 1400 mg/kg
- ED50 [1, 4]: 0.5 mg/kg
- Improvement (prolongation of latency) ([3]; 25 mg/kg): 12.8%
- Improvement (prolongation of latency) ([3]; 100 mg/kg): 46.6%

SMILES: NC(=O)CN1CCCC1=O [Piracetam, reference compound]
- Improvement (prolongation of latency) ([3]; 250 mg/kg): 22.0%
- Improvement (prolongation of latency) ([3]; 500 mg/kg): 14.1%

SMILES: Cc1csc2nc(N3CCNCC3)nc(-c3ccccc3)c12 [Example 5, 5-methyl-4-phenyl-2-piperazinyl-thieno[2,3-d]pyrimidine]
- LD50 ([2]; male mice): 275 mg/kg
- ED50 [1, 4]: 4 mg/kg

SMILES: Cc1cc2c(-c3ccccc3Br)nc(N3CCNCC3)nc2s1 [Example 15]
- LD50 [2]: 1750 mg/kg
- ED50 [1, 4]: 2.9 mg/kg

SMILES: Cc1sc2nc(N3CCNCC3)nc(-c3ccccc3)c2c1C [Example 4, 5,6-dimethyl-4-phenyl-2-piperazinyl-thieno[2,3-d]pyrimidine]
- LD50 ([2]; male mice): 1330 mg/kg
- ED50 [1, 4]: 1.8 mg/kg

SMILES: CN(C)CCC=C1c2ccccc2CCc2ccccc21 [Amitriptyline, reference compound]
- LD50 ([2]; male mice): 380 mg/kg
- ED50 ([1]; 4 h): 14.5 mg/kg

SMILES: Cc1cc2c(-c3ccccc3)nc(N3CCNCC3)nc2s1 [Example 1, 6-METHYL-4-PHENYL-2-PIPERAZINYLTHIENO[2,3-d]PYRIMIDINE]
- LD50 [2]: 1170 mg/kg
- ED50 [1, 4]: 2 mg/kg
- Improvement (prolongation of latency) ([3]; 25 mg/kg): 6.8%
- Improvement (prolongation of latency) ([3]; 100 mg/kg): 22.7%

SMILES: Cc1cc2c(-c3ccccc3C#N)nc(N3CCNCC3)nc2s1 [Example 20]
- LD50 [2]: 370 mg/kg
- ED50 [1, 4]: 1.5 mg/kg

SMILES: Cc1cc2c(-c3ccccc3F)nc(N3CCNCC3)nc2s1 [Example 14]
- LD50 [2]: 1110 mg/kg
- ED50 [1, 4]: 0.27 mg/kg
- Improvement (prolongation of latency) ([3]; 25 mg/kg): 30.9%
- Improvement (prolongation of latency) ([3]; 100 mg/kg): 51.5%
